Data from patent US20050142065A1, “Screening method” (priority 2002, published 2005).
Structures can show the parent of a compound that is named as a salt.

Legend:
Wistar fatty rats = experiment: Glycated hemoglobin value in Wistar fatty rats given the compound in powder diet; format: in vivo, rat; conditions: for decrease in the glycated hemoglobin value, corrected for control group: minus decrease in control a group; for decrease in glycated hemoglobin value (before minus after administration): male Wistar fatty rats
Protocol: In this Experimental Example, the blood of the rats were taken in a microtube finally containing 0.01M EDTA as an anticoagulant agent, for the measurement of blood glucose level and glycated hemoglobin value. The glycated hemoglobin value was measured by high performance liquid chromatograph (HLC-723GhbVA1c2.2 (product name, manufactured by Tosoh Corporation)) using an aminophenyl boronate affinity column and an absorbance (415 nm) detection method. For the mobile phase, eluents A, B (manufactured by Tosoh Corporation) were used, and the conditions set for chromatography, such as column temperature, flow rate and the like, followed the standard conditions set for this chromatography. […] The glycated hemoglobin value was measured at 4 and 5 weeks after the start of the experiment.

[1] = system: Diabetes mellitus patients; experiment: Hemoglobin A1c value in diabetes mellitus patients after oral administration; format: in vivo, human; conditions: 30 mg daily dose
Protocol: Diabetes mellitus patients (134 patients, age 57.6±11.5 years old, fasting blood glucose level 183.2±35.2 mg/dl, hemoglobin A1c value 9.27±1.60%) were divided into 2 groups.

## CCc1ccc(CCOc2ccc(CC3SC(=O)NC3=O)cc2)nc1 (centres unmarked) [pioglitazone hydrochloride]
Wistar fatty rats; b group, 0.8 mg/kg body weight daily in diet, 4 weeks
  decrease in the glycated hemoglobin value, corrected for control group: 1.1%
Wistar fatty rats; b group, 0.8 mg/kg body weight daily in diet, 5 weeks
  decrease in the glycated hemoglobin value, corrected for control group: 1.3%
Wistar fatty rats; b group, 0.8 mg/kg body weight daily in diet, 4 weeks after start of administration
  decrease in glycated hemoglobin value (before minus after administration): 1.4%
Wistar fatty rats; b group, 0.8 mg/kg body weight daily in diet, 5 weeks after start of administration
  decrease in glycated hemoglobin value (before minus after administration): 1.9%
Wistar fatty rats; c group, 2.4 mg/kg body weight daily in diet, 4 weeks
  decrease in the glycated hemoglobin value, corrected for control group: 2.5%
Wistar fatty rats; c group, 2.4 mg/kg body weight daily in diet, 5 weeks
  decrease in the glycated hemoglobin value, corrected for control group: 2.7%
Wistar fatty rats; c group, 2.4 mg/kg body weight daily in diet, 4 weeks after start of administration
  decrease in glycated hemoglobin value (before minus after administration): 2.8%
Wistar fatty rats; c group, 2.4 mg/kg body weight daily in diet, 5 weeks after start of administration
  decrease in glycated hemoglobin value (before minus after administration): 3.3%
[1]; 8 weeks after start of administration
  decrease in the hemoglobin A1c value: 0.70%
[1]; 8 weeks, minus decrease in placebo group
  decrease in hemoglobin A1c value, corrected for placebo group: 0.68%
[1]; 12 weeks after start of administration
  decrease in the hemoglobin A1c value: 1.08%
